In patent US20250241890A1, “1,4-DIUREAS AND 1,4-DITHIOUREAS AND USES THEREOF” (Purdue Research Foundation, priority 2024, published 2025):

What was measured:
Format in all cases: biochemical
tau isoform 0N4R = biological target: T1, tau isoform 0N4R (Homo sapiens, UniProt P10636); assay: PICUP assay of tau 0N4R oligomer formation; details: tau 10 μM, compound 50 μM (molar ratio 1:5)
T1 construct: made in house; host or cells: Rosetta BL21 E. coli
Protocol: FIG. 5. […] Compounds 1, 2, and 8 were selected for their α-syn anti-oligomerization activity. Compound 7 was used as di-urea counterpart of compound 8, as compound 1 is the di-urea counterpart of compound 2, a dithiourea derivative. Tau (10 μM) was cross-linked (PICUP assay) with different concentrations of the di-substituted aminoindolyl derivatives at 50 μM (molar ratio 1:5).
Chemical and peptide source. Dimethylsulfoxide (DMSO) and thioflavin-T (ThT) were purchased from Alfa Aesar (Ward Hill, MA). Recombinant α-synuclein (α-syn) was procured from rPeptide (WatKinsville, GA). The recombinant p-tau isoform 1N4R was prepared as published previously (Fortin et al. 2021, Sui et al. 2015, Liu et al. 2020). Concerning the preparation of tau 0N4R, a bacterial expression plasmid consisting of the vector pET30a carrying a cDNA encoding the human Tau 0N4R isoform was a kind gift of Dr. Benjamin Wolozin (Boston University). E. coli stock (Rosetta BL21 E. coli (CamR) containing pET30a [0N4R tau wt] (KanR)) was grown in LB medium supplemented with kanamycin (50 μg/mL) and chloramphenicol (50 μg/mL). […] General Characterizations. ^1H and ^13C {1H} NMR spectra were recorded using a 500 MHz Bruker instrument working at a frequency of 500 MHz for ^1H and at 126 MHz for ^13C. […] Thioflavin fluorescence assays. Thioflavin fluorescence assays were used to monitor fibril formation of commercial recombinant α-syn at a final concentration of 2 μM and treated with control DMSO and different compounds. […] Kinetics of fibril formation have been performed using ThT as published previously.^6, 12, 13, 24 The fluorescence emission experiments were performed with the excitation and emission wavelengths set at 440 and 485 nm, respectively, with a Synergy HT multi-mode microplate reader (BioTek, Winooski, VT). Samples were measured in three replicates. […] For each time point, arbitrary units of fluorescence were calculated from the mean values normalized against the maximum value. The percentage of fluorescence intensity at the plateau phase in Table 1 was expressed as mean #SEM. […]

p-tau isoform 1N4R = biological target: T2, p-tau isoform 1N4R (Homo sapiens, UniProt P10636); assay: PICUP assay of p-tau 1N4R oligomer formation; details: p-tau 4 μM, compound 50 μM (molar ratio 1:12.5)
T2 construct: made in house
T2 sequence (P10636 1-412 isoform P10636-7): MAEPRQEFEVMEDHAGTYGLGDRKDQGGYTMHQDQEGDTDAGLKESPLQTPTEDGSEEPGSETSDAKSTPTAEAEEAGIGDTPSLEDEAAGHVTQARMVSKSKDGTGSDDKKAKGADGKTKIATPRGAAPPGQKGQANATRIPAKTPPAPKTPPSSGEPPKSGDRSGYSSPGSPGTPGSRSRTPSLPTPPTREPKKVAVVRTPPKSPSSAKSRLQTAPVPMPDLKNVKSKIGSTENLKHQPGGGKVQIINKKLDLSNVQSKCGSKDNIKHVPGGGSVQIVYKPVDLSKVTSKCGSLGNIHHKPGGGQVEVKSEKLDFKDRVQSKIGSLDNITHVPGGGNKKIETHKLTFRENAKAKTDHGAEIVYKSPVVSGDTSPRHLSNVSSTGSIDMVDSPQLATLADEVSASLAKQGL

α-syn fibrils = biological target: T3, α-syn fibrils (Homo sapiens, UniProt P37840); assay: Transmission electron microscopy (TEM) of α-syn fibrils; details: α-syn 2 μM, compound 100 μM, ~22 hours at 37° C.
T3 construct: purchased rPeptide (Watkinsville, GA)

T1 sequence (P10636 1-383 isoform P10636-6): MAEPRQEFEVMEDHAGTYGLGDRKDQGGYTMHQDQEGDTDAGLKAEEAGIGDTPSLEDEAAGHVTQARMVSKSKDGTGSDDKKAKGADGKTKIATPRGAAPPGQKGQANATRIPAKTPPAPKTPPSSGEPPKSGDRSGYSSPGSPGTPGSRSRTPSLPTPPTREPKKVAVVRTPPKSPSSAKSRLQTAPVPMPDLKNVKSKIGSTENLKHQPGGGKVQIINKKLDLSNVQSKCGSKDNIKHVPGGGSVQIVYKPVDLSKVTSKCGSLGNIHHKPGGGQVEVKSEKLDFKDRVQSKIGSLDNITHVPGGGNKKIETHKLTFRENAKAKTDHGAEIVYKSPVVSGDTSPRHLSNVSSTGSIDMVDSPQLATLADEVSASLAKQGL

Row | effect on α-syn fibrils by TEM (α-syn fibrils) | Structure (SMILES) | effect on tau 0N4R oligomer formation by PICUP (tau isoform 0N4R) | effect on p-tau 1N4R oligomer formation by PICUP (p-tau isoform 1N4R)
1 | – | S=C(Nc1ccc(NC(=S)Nc2cccc3cc[nH]c23)cc1)Nc1cccc2cc[nH]c12 [Compound 8, 3-(1H-indol-7-yl)-1-(4-{[(1H-indol-7-yl)carbamothioyl]amino}phenyl)thiourea] | None of these compounds were able to reduce the tau 0N4R oligomer formation | –
2 | reduced α-syn fibril formation | S=C(Nc1ccc(NC(=S)Nc2cccc3[nH]ccc23)cc1)Nc1cccc2[nH]ccc12 [Compound 2, 3-(1H-indol-4-yl)-1-(4-{[(1H-indol-4-yl)carbamothioyl]amino}phenyl)thiourea] | None of these compounds were able to reduce the tau 0N4R oligomer formation | failed to inhibit p-tau oligomer formation
